Source: publication PMC7567930 (Heliyon, 2020)
“Also recorded” adds a separate entry of the source. Read-outs that look alike come from different tables or passages of the source.

Biological target: Jack bean urease (Canavalia ensiformis, UniProt P07374)
Experiment: Jack bean urease inhibition
Assay type: biochemical
[1] = read-out: IC50 ± SEM, Table 2, derivatives 6a-6f, triplicate
[2] = IC50 ± SEM, Table 1, derivatives 3a-3f, triplicate
[3] = urease inhibition IC50, values in the abstract

Sequence of Jack bean urease (P07374 whole entry, looked up): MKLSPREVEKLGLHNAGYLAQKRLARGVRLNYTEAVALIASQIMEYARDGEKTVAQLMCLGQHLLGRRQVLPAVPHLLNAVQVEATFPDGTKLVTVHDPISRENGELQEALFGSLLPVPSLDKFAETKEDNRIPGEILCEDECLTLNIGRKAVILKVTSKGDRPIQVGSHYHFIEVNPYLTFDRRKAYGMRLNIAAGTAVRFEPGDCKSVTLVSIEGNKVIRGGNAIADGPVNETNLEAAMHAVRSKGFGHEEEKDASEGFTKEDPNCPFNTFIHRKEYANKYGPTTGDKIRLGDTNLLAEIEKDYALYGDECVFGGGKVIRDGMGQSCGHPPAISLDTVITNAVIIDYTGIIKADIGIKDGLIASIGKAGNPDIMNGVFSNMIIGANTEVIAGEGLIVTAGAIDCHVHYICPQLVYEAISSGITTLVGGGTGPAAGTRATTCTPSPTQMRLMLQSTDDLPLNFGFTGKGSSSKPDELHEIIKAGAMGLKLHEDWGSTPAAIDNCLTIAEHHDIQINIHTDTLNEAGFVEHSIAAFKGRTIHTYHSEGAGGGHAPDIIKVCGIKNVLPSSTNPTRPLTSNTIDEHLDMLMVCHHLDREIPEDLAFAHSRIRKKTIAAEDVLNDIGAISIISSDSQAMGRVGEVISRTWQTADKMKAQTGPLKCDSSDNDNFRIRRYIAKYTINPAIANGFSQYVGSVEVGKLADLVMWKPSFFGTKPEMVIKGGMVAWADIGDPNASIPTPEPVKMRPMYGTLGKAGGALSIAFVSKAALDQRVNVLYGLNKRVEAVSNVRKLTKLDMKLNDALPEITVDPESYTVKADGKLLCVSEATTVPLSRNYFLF

Row | Structure (SMILES) | IC50 [1] [µM] | urease inhibition, result in words | further results
1 | COc1ccc2cc(C(C)c3nc4ccc(C)cc4[nH]3)ccc2c1 (racemic) [6e, (±)-6-methyl-2-((R)-1-(2-methoxynaphthalen-6-yl)ethyl)-1H-benzo[d] imidazol] | 44 ± 2.4 |  | 
2 | CC(O)c1nc2ccccc2[nH]1 (single isomer, unassigned) [compound 3a, (R or S)-1-(1H-benzo[d]imidazol-2-yl)ethanol] |  | significant urease inhibition; also recorded: good enzyme inhibitory activity; also recorded: most potent | IC50 [2]: 22 ± 6.2 µM; IC50 [3]: 22.3 ± 6.2 µM
3 | COc1ccc2cc(C(C)c3nc4ccc(Cl)cc4[nH]3)ccc2c1 (racemic) [6b, (±)-6-chloro-2-((R)-1-(2-methoxynaphthalen-6-yl)ethyl)-1H-benzo[d]imidazol] | 36 ± 1.7 |  | 
4 | COc1ccc2cc(C(C)c3nc4ccc(Br)cc4[nH]3)ccc2c1 (racemic) [6c, (±)-6-bromo-2-((R)-1-(2-methoxynaphthalen-6-yl)ethyl)-1H-benzo[d]imidazol] | 51 ± 9.3 |  | 
5 | CC(O)c1nc2ccccc2[nH]1 (single isomer, unassigned) [compound 3f, (R or S)-1-(1H-benzo[d]imidazol-2-yl)ethanol] |  | significant urease inhibition; also recorded: good enzyme inhibitory activity; also recorded: most potent | IC50 [2]: 31 ± 23.3 µM; IC50 [3]: 31.4 ± 23.3 µM
6 | COc1ccc2cc(C(C)n3cnc4ccccc43)ccc2c1 (racemic) [6f] | 39 ± 2.4 |  | 
7 | NC(N)=S [thiourea, reference compound] |  |  | IC50 (read-out: IC50 of reference thiourea, standard inhibitor): 20.9 µM
8 | COc1ccc2cc(C(C)n3cnc4ccccc43)ccc2c1 (racemic) [6a] | 38 ± 1.3 |  | 
9 | COc1ccc2cc(C(C)c3nc4ccc([N+](=O)[O-])cc4[nH]3)ccc2c1 (racemic) [compound 6d, (±)-6-Nitro-2-((R)-1-(2-methoxynaphthalen-6-yl)ethyl)-1H-benzo[d]imidazol] | 99 ± 9.4 | not showing significant urease inhibition | 
